# Experimental data taken from patent US20230241031A1, “Composition, Comprising Rip Kinase Inhibitor, For Preventing Hair Loss Or Promoting Hair Regrowth” (Epi Biotech Co., Ltd., priority 2019, published 2023).
# Key:
# mouse vibrissae = experiment: Hair growth induction in organ-cultured mouse vibrissae; format: cell-based, mouse (C57BL/6 female mice); details: vibrissae cultured 3 days at 37° C.; for degree of hair growth induction: siRNA treatment, vs control siRNA, FIG. 6; for degree of hair growth induction (efficacy of promoting hair growth): vs untreated group; for degree of hair growth induction (effect of promoting hair growth): compared to inactive type necrostatin-1, FIG. 1
# Method: Specifically, the vibrissae of C57BL/6 female mice were trimmed and organ cultured. […] The vibrissae of the three treatment groups were treated with 10 μM, respectively, and then cultured for 3 days in an incubator at 37° C.
# (§1) Specifically, the vibrissae of C57BL/6 female mice were trimmed and organ cultured. The trimmed vibrissae were cultured in a 48-well plate so as to become one per well, and divided into a total of 3 groups: the untreated group (control group), the group treated with 1 μM sibiriline, and the group treated with 10 μM sibiriline. The vibrissae were treated, respectively, and then cultured for 3 days in an incubator at 37° C.
# as §1, with “GSK963,” for “sibiriline,”, “GSK963.” for “sibiriline.”
# as §1, with “of C57/BL6” for “of C57BL/6”, “of 4” for “of 3”, “μM GSK2982772,” for “μM sibiriline, and”, “μM GSK2982772, and the group treated with 50 μM GSK2982772.” for “μM sibiriline.”
# as §1, with “the” for “the untreated”, “treated with RIPK1 siRNA,” for “(control group),”, “RIPK3 siRNA,” for “1 μM sibiriline,”, “control siRNA (control group) in Table 1.” for “10 μM sibiriline.”
# C3H/HeN mice = experiment: Hair regrowth on the back of depilated mice after topical application; format: in vivo, mouse (C3H/HeN, male); details: 100 μl applied to the back, 13 days, FIG. 2
# Text: The hairs of ten 6-week-old male C3H/HeN mice were shaved short using a depilatory machine, and the remaining hairs were completely removed using a depilatory agent, and then they were stabilized for one day before use in the experiment.
# Mice were divided into 5 mice per group under the following conditions to conduct an experiment.
# After 13 days, the hairs on the back of the mouse in which hair regrowth occurred were shaved using a razor, and then the hairs were obtained, and the weight was measured.
molecule,measurement,setting,value
"RIPK3 siRNA: siRNA of SEQ ID NO: 3 and 4 capable of inhibiting RIP kinase expression (chain 1 CGAGUGAUGUCUACAGCUU; chain 2 AAGCUGUAGACAUCACUCG; listed as RNA, chemistry not given here)",degree of hair growth induction,mouse vibrissae,hair growth was promoted
Oc1ccc(-c2cc3cccnc3[nH]2)cc1 [sibiriline],degree of hair growth induction (efficacy of promoting hair growth),mouse vibrissae; 1 μM,excellent efficacy of promoting hair growth
same,degree of hair growth induction (efficacy of promoting hair growth),mouse vibrissae; 10 μM,excellent efficacy of promoting hair growth
CN1C(=O)[C@@H](NC(=O)c2nnc(Cc3ccccc3)[nH]2)COc2ccccc21 [GSK2982772],degree of hair growth induction (efficacy of promoting hair growth),mouse vibrissae; 1 μM,excellent efficacy of promoting hair growth
same,degree of hair growth induction (efficacy of promoting hair growth),mouse vibrissae; 10 μM,excellent efficacy of promoting hair growth
same,degree of hair growth induction (efficacy of promoting hair growth),mouse vibrissae; 50 μM,excellent efficacy of promoting hair growth
CC(C)(C)C(=O)N1N=CCC1c1ccccc1 (stereo not shown) [GSK963],degree of hair growth induction (efficacy of promoting hair growth),mouse vibrissae; 1 μM,excellent efficacy of promoting hair growth
same,degree of hair growth induction (efficacy of promoting hair growth),mouse vibrissae; 10 μM,excellent efficacy of promoting hair growth
"RIPK1 siRNA: siRNA of SEQ ID NO: 1 and 2 capable of inhibiting RIP kinase expression (chain 1 GUCCUUGUGUUACCACAGA; chain 2 UCUGUGGUAACACAAGGAC; listed as RNA, chemistry not given here)",degree of hair growth induction,mouse vibrissae,hair growth was promoted
CN1C(=O)C(Cc2c[nH]c3ccccc23)NC1=S (stereo not shown) [necrostatin-1],degree of hair growth induction (effect of promoting hair growth),mouse vibrissae; 10 μM,excellent effect of promoting hair growth compared to the inactive type necrostatin-1
CN1C(=O)NC(Cc2c[nH]c3c(Cl)cccc23)C1=O (stereo not shown) [necrostatin-1s],degree of hair growth induction (effect of promoting hair growth),mouse vibrissae; 10 μM,excellent effect of promoting hair growth compared to the inactive type necrostatin-1
same,effect of inducing hair growth (appearance of hair growth and weight of the hair),"C3H/HeN mice; 100 μM, vs 2% minoxidil group",more excellent effect of inducing hair growth compared to the group administered with commercially available minoxidil
same,hair growth effect (appearance of hair growth and weight of the hair),"C3H/HeN mice; group administered with necrostatin-1s (10 μM or 100 μM), vs untreated control group",excellent hair growth effect compared to the untreated control group
